Consider seven compounds from ChEMBL document CHEMBL4373734, “Overcoming imatinib resistance in chronic myelogenous leukemia cells using non-cytotoxic cell death modulators” (Eur J Med Chem, 2020).

Series [1] has as its target T1, Peroxisome proliferator-activated receptor gamma (Homo sapiens, UniProt P37231).
T1 sequence (P37231 whole entry): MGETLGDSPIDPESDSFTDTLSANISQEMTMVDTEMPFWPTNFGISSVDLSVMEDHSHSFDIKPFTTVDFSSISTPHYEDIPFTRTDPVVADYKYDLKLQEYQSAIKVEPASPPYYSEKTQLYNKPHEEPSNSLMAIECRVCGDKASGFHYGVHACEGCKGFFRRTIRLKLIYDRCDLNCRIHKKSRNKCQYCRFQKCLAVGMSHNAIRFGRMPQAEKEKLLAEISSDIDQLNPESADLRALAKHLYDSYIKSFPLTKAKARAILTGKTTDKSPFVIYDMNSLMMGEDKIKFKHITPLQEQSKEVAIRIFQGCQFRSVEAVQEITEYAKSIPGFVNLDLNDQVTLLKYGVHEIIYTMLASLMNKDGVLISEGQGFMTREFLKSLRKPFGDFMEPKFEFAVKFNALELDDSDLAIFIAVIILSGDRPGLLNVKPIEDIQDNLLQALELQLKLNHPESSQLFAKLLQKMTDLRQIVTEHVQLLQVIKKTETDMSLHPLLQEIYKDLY
Kind of series: Transactivation of Gal4-fused human PPARgamma transfected in COS7 cells co-transfected with pGAL5-TK-pGL3 and pRennilla-CMV incubated for 39 hrs by dual luciferase reporter assay. In kind it is cell-based. On the technique in general: Reporter assays use an easily measured gene product as a stand-in for the process of interest.

Series [2] deals with T2, Peroxisome proliferator-activated receptor gamma (Homo sapiens) (UniProt P37231).
T2 sequence (whole entry): T1 sequence (P37231 whole entry)
The series can be described thus: Transactivation of Gal4-fused human PPARgamma transfected in COS7 cells co-transfected with pGAL5-TK-pGL3 and pRennilla-CMV assessed as maximum intrinsic activation at 10 uM incubated for 39 hrs by dual luciferase reporter assay relative to pioglitazone. In kind it is cell-based.

Series [3] relates to K562-IMA[r]. Kind of series: Induction of sensitization to imatinib-induced cytotoxicity in imatinib-resistant human K562-IMA[r] cells assessed as induction of cell death at 10 uM after 72 hrs in presence of 1 uM imatinib by propidium iodide/Triton-X100 dye based FACS analysis. In kind it is functional. In general terms: Flow cytometry measures light scatter and fluorescence of single cells or particles in a stream.

For series [4], the system named is K562-IMA[r]. The series can be described thus: Cytotoxicity against imatinib-resistant human K562-IMA[r] cells assessed as cell death at 10 uM after 72 hrs by propidium iodide/Triton-X100 dye based FACS analysis.
A short description of series [5]: Cytotoxicity against human HS5 cells assessed as cell death at 10 uM after 72 hrs by propidium iodide/Triton-X100 dye based FACS analysis.
Series [6] relates to K562. Kind of series: Cytotoxicity against human K562 cells assessed as cell death at 10 uM after 72 hrs by propidium iodide/Triton-X100 dye based FACS analysis. The note with it: k562, 72 h.
Series [7] has as its system COS-7. Kind of series: Cytotoxicity against African green monkey COS7 cells assessed as effect on cell metabolic activity at 20 uM after 72 hrs by MTT assay. The series is classed as ADME, cell-based. The note with it: chlorocebus aethiops, cos-7, 72 h. Background: Tetrazolium dyes change colour on reduction, which living cells bring about.
In series [8] the target is T2, Peroxisome proliferator-activated receptor gamma (Homo sapiens). Kind of series: Transactivation of Gal4-fused human PPARgamma transfected in COS7 cells co-transfected with pGAL5-TK-pGL3 and pRennilla-CMV at 20 uM incubated for 39 hrs by dual luciferase reporter assay. In kind it is cell-based.
Series [9] can be described thus: Solubility of compound in DMSO at 10 uM by microscopic analysis. The series is classed as physicochemical.
Series [10] has as its system K562-IMA[r]. The series can be described thus: Induction of sensitization to imatinib-induced cytotoxicity in imatinib-resistant human K562-IMA[r] cells assessed as cell death at 0.1 to 10 uM measured after 72 hrs in presence of 1 uM imatinib by propidium iodide/Triton-X100 dye based FACS analysis. In kind it is functional.
Series [11] can be described thus: Solubility of compound in water at >20 uM. The series is classed as physicochemical. As to conditions: buffer.
The target in series [12] is T2, Peroxisome proliferator-activated receptor gamma (Homo sapiens). Kind of series: Transactivation of Gal4-fused human PPARgamma transfected in COS7 cells co-transfected with pGAL5-TK-pGL3 and pRennilla-CMV assessed as maximum intrinsic activation at 20 uM incubated for 39 hrs by dual luciferase reporter assay. The series is classed as cell-based.
In series [13] the test system is K562-IMA[r]. Kind of series: Cytotoxicity against imatinib-resistant human K562-IMA[r] cells assessed as induction of cell death at 10 uM after 72 hrs by propidium iodide/Triton-X100 dye based FACS analysis relative to control.
Series [14] relates to K562-IMA[r]. The series can be described thus: Induction of sensitization to imatinib induced cytotoxicity in imatinib-resistant human K562-IMA[r] cells assessed as cell death up to 2.5 uM measured after 72 hrs in presence of 1 uM imatinib by propidium iodide/Triton-X100 dye based FACS analysis. The series is classed as functional.
For series [15], the system named is K562-IMA[r]. Kind of series: Induction of sensitization to imatinib-induced cytotoxicity in imatinib-resistant human K562-IMA[r] cells assessed as gain in cell death rate at 5 uM measured after 72 hrs in presence of 1 uM imatinib by propidium iodide/Triton-X100 dye based FACS analysis relative to imatinib-treated control. In kind it is functional.
The test system of series [16] is K562-IMA[r]. Kind of series: Decrease in STAT5 expression in imatinib-resistant human K562-IMA[r] cells at 10 uM after 24 hrs in presence of 1 uM imatinib by Western blot analysis. The series is classed as functional, cell-based.
Series [17] has as its system K562-IMA[r]. The series can be described thus: Induction of sensitization to imatinib-induced cytotoxicity in imatinib-resistant human K562-IMA[r] cells assessed as induction of cell death at 10 uM after 72 hrs in presence of 1 uM imatinib by propidium iodide/Triton-X100 dye based FACS analysis (reference value: 15%). The series is classed as functional.
Series [18] deals with K562-IMA[r]. The series can be described thus: Induction of sensitization to imatinib-induced cytotoxicity in imatinib-resistant human K562-IMA[r] cells assessed as induction of cell death measured after 72 hrs in presence of 1 uM imatinib by propidium iodide/Triton-X100 dye based FACS analysis. The series is classed as functional.

In general, pEC50 refers to the EC50 on a negative log10 scale, so that one unit is a factor of ten.

pEC50: −log10 of the molar value. Activity calls are given as the source filed them. The calls are words filed in the database; no cut-off is given here. Bounds are passed on as bounds.

Compound `CCCc1nc2ccccc2n1Cc1ccc(-c2ccccc2C(=O)O)cc1` showed a pEC50 in series [1] of 5.14. Besides, in [2], the Intrinsic activity came to 58.5%. Also, the outcome in series [3] and in [8] was Active. Also, the Activity entry in series [4], in series [5], in [6] and in [7] was “Non-Toxic” in each case. In addition, the solubility result in [9] was “Soluble”.

`CCCc1nc2c(Br)cccc2n1Cc1ccc(-c2ccccc2C(=O)O)cc1` showed a negative logarithm of the EC50 (pEC50) in [1] of 5.08. The Intrinsic activity in [2] was 44.9%. Besides, the result in series [3] and in series [8] was Active. Further, the Activity entry in series [4], in series [5], in series [6] and in [7] was “Non-Toxic” in each case. Further, the solubility entry in series [9] is “Soluble”.

For the compound `CCCc1nc2c(Cl)cccc2n1Cc1ccc(-c2ccccc2C(=O)O)cc1`, the pEC50 in series [1] was 5.06. In addition, the Intrinsic activity in [2] amounted to 44%. Further, the result in [3] and in series [8] was Active. The Activity result in [4], in series [5], in [6] and in [7] was “Non-Toxic” in each case. Also, in [9], the solubility entry was “Soluble”.

On to `CCc1ccc(CCOc2ccc(CC3SC(=O)NC3=O)cc2)nc1` (stereo not given) [PIOGLITAZONE], for which the outcome in series [3] was Active. The Activity entry in series [4] was “Non-Toxic”. For the same compound, the outcome in series [10] was inactive.

Regarding `CCCc1nc2c(Br)cccc2n1Cc1ccc(-c2ccccc2C(N)=O)cc1`, in series [2], the Intrinsic activity came to 20.8%. The solubility entry is “Insoluble” in series [11] and “Soluble” in series [9]. For the same compound, the Intrinsic activity entry in series [12] was “inactive”. Moreover, the Activity in series [13] was below 20%; in series [15], 21.4%; in [5] it was “Non-Toxic”; in series [6], “Non-Toxic”; in [7] it was “Non-Toxic”; in series [17], 62 - 78%. Also, the Activity entry in series [18] is “Dose-dependent effect”. Also, the outcome in [14] was inactive. Besides, in series [16], the outcome was Active.

`CCCc1nc2c(F)cccc2n1Cc1ccc(-c2ccccc2C(=O)O)cc1` showed a pEC50 in series [1] of 5.06. Also, the Intrinsic activity in series [2] turned out to be 44.2%. Further, the result in series [3] and in series [8] was Active. For the same compound, the Activity entry in series [4], in [5], in series [6] and in [7] was “Non-Toxic” in each case. In addition, in series [9], the solubility entry is “Soluble”.

For the compound `CCCc1nc2ccccc2n1Cc1ccc(-c2ccccc2C(N)=O)cc1`, the Intrinsic activity in series [2] is 39.5%. Further, the solubility result in series [11] was “Insoluble”; in series [9] it was “Soluble”. Besides, the Intrinsic activity entry in [12] is “inactive”. Also, the Activity is given as below 20% in [13]; 16% in series [15]; “Non-Toxic” in [5]; “Non-Toxic” in series [6]; “Non-Toxic” in series [7]; 62 - 78% in [17]. For the same compound, in series [18], the Activity entry is “Dose-dependent effect”. In addition, in series [14], the result was inactive. Moreover, the outcome in series [16] was Active.
